Data: US12539292B2, “BRM targeting compounds and associated methods of use” (Arvinas Operations, Inc., priority 2018, dated 2026)

Target: T1, BRM (Homo sapiens, UniProt P51531)
T1 construct: In-Cell Western Screen of BRM Degradation in SW1573 Cells; endogenous in cells; host or cells: SW1573
Experiment: In-cell Western screen of BRM degradation in SW1573 cells (Dmax and DC50)
Format: cell-based
Details: BRM degradation, SW1573 cells; for DC50: read-out: DC50; for Dmax: tested at the top concentration of between 0.3 and 10 μM, read-out: Dmax (%) (% degraded)
In short: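 SW1573 cells were treated overnight (18-20 hours) with compound at 0.1% final DMSO. They were then PFA-fixed, permeabilised with Triton X-100 and immunostained with 800 nm/680 nm secondary antibodies. BRM signal was quantified by LI-COR in-cell Western imaging to derive Dmax and DC50.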

T1 sequence (P51531 whole entry): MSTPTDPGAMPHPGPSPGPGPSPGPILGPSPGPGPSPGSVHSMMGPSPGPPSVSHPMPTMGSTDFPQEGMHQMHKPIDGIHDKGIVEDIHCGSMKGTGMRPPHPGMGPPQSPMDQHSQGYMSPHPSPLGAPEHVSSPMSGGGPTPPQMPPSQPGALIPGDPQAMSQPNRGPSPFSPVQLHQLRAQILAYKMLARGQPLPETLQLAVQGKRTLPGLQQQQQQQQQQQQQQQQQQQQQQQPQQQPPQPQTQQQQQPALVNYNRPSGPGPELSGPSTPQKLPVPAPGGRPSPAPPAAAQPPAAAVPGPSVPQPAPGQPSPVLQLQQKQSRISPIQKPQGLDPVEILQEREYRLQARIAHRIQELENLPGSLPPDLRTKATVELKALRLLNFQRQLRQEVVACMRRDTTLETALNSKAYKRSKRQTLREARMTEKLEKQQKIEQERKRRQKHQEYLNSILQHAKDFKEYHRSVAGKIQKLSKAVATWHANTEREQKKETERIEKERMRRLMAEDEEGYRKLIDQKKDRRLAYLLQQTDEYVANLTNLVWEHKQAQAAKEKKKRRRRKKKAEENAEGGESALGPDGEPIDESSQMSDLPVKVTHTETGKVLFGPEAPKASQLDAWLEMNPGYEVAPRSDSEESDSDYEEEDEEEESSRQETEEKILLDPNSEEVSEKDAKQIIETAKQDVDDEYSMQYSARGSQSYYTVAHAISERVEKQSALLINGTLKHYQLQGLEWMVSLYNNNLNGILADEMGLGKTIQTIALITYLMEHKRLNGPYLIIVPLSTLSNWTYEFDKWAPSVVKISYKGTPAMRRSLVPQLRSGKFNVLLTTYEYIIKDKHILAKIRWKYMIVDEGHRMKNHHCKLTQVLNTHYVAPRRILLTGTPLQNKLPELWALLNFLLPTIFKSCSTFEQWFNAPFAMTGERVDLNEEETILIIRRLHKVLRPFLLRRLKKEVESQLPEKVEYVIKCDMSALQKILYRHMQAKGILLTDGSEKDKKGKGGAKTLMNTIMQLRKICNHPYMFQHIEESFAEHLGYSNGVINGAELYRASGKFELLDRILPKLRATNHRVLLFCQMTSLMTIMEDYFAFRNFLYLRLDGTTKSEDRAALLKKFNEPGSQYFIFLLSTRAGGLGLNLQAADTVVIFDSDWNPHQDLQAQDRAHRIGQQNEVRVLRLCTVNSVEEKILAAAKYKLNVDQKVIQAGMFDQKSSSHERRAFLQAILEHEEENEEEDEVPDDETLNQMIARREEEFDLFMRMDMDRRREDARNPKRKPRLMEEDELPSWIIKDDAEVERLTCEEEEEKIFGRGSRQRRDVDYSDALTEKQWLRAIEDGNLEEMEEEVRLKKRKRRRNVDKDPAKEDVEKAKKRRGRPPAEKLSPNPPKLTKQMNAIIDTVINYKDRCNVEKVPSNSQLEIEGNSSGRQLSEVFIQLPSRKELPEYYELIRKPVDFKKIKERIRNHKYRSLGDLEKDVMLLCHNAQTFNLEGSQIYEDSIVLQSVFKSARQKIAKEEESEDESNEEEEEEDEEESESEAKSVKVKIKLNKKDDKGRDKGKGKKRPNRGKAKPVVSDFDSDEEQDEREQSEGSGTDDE

Row | SMILES | DC50 [nM] | Dmax [%]
1 | Cc1ncsc1-c1ccc([C@H](C)NC(=O)[C@@H]2C[C@@H](O)CN2C(=O)[C@H](c2cc(OCCN3CCC4(CC3)CC(OCCN3CCOC5(CCN(c6cc(-c7ccccc7O)nnc6N)CC5)C3)C4)no2)C(C)C)cc1 [compound 164, (2S,4R)-1-((S)-2-(3-(2-(2-(2-(9-(3-amino-6-(2-hydroxyphenyl)pyridazin-4-yl)-1-oxa-4,9-diazaspiro[5.5]undecan-4-yl)ethoxy)-7-azaspiro[3.5]nonan-7-yl)ethoxy)isoxazol-5-yl)-3-methylbutanoyl)-4-hydroxy-N-((S)-1-(4-(4-methylthiazol-5-yl)phenyl)ethyl)pyrrolidine-2-carboxamide] | 10 to 30 | 50 to 75
2 | Cc1ncsc1-c1ccc(CNC(=O)[C@@H]2C[C@@H](O)CN2C(=O)[C@H](c2cc(OCCN3CCN(CCOCCn4cc(-c5cc(-c6ccccc6O)nnc5N)cn4)CC3)no2)C(C)C)cc1 [compound 165, (2S,4R)-1-((S)-2-(3-(2-(4-(2-(2-(4-(3-amino-6-(2-hydroxyphenyl)pyridazin-4-yl)-1H-pyrazol-1-yl)ethoxy)ethyl)piperazin-1-yl)ethoxy)isoxazol-5-yl)-3-methylbutanoyl)-4-hydroxy-N-(4-(4-methylthiazol-5-yl)benzyl)pyrrolidine-2-carboxamide] | > 30 | < 50
3 | Cc1ncsc1-c1ccc([C@H](C)NC(=O)[C@@H]2C[C@@H](O)CN2C(=O)[C@H](c2cc(OCCN3CCN(Cc4ccc(C(C)n5cc(-c6cc(-c7ccccc7O)nnc6N)cn5)cc4)CC3)no2)C(C)C)cc1 (stereo partly drawn) [compound 166, (2S,4R)-1-((2S)-2-(3-(2-(4-(4-(1-(4-(3-amino-6-(2-hydroxyphenyl)pyridazin-4-yl)-1H-pyrazol-1-yl)ethyl)benzyl)piperazin-1-yl)ethoxy)isoxazol-5-yl)-3-methylbutanoyl)-4-hydroxy-N-((S)-1-(4-(4-methylthiazol-5-yl)phenyl)ethyl)pyrrolidine-2-carboxamide] | 2.5 to 10 | > 75
4 | CC(C)C(C(=O)N1C[C@H](O)C[C@H]1C(=O)N[C@@H](C)c1ccc(-c2scnc2CN(C)C)cc1)c1cc(OCCN2CCN(CCOc3cc(N4C5CCC4CN(c4cc(-c6ccccc6O)nnc4N)C5)ccn3)CC2)no1 (stereo partly drawn) [compound 167, (2S,4R)-1-(2-(3-(2-(4-(2-((4-(3-(3-amino-6-(2-hydroxyphenyl)pyridazin-4-yl)-3,8-diazabicyclo[3.2.1]octan-8-yl)pyridin-2-yl)oxy)ethyl)piperazin-1-yl)ethoxy)isoxazol-5-yl)-3-methylbutanoyl)-N-((S)-1-(4-(4-((dimethylamino)methyl)thiazol-5-yl)phenyl)ethyl)-4-hydroxypyrrolidine-2-carboxamide] | 10 to 30 | > 75
5 | CC(C)C(C(=O)N1C[C@H](O)C[C@H]1C(=O)N[C@@H](C)c1ccc(-c2scnc2CO)cc1)c1cc(OCCN2CCN(CCOc3cc(N4C5CCC4CN(c4cc(-c6ccccc6O)nnc4N)C5)ccn3)CC2)no1 (stereo partly drawn) [compound 168, (2S,4R)-1-(2-(3-(2-(4-(2-((4-(3-(3-amino-6-(2-hydroxyphenyl)pyridazin-4-yl)-3,8-diazabicyclo[3.2.1]octan-8-yl)pyridin-2-yl)oxy)ethyl)piperazin-1-yl)ethoxy)isoxazol-5-yl)-3-methylbutanoyl)-4-hydroxy-N-((S)-1-(4-(4-(hydroxymethyl)thiazol-5-yl)phenyl)ethyl)pyrrolidine-2-carboxamide] | < 2.5 | > 75
6 | COCc1ncsc1-c1ccc([C@H](C)NC(=O)[C@@H]2C[C@@H](O)CN2C(=O)C(c2cc(OCCN3CCN(CCOc4cc(N5C6CCC5CN(c5cc(-c7ccccc7O)nnc5N)C6)ccn4)CC3)no2)C(C)C)cc1 (stereo partly drawn) [compound 169, (2S,4R)-1-(2-(3-(2-(4-(2-((4-(3-(3-amino-6-(2-hydroxyphenyl)pyridazin-4-yl)-3,8-diazabicyclo[3.2.1]octan-8-yl)pyridin-2-yl)oxy)ethyl)piperazin-1-yl)ethoxy)isoxazol-5-yl)-3-methylbutanoyl)-4-hydroxy-N-((S)-1-(4-(4-(methoxymethyl)thiazol-5-yl)phenyl)ethyl)pyrrolidine-2-carboxamide] | < 2.5 | > 75
7 | Cc1ncsc1-c1ccc([C@H](C)NC(=O)[C@@H]2C[C@@H](O)CN2C(=O)[C@H](c2cc(CCCN3CCN(CCOc4cc(N5C6CCC5CN(c5cc(-c7ccccc7O)nnc5N)C6)ccn4)CC3)no2)C(C)C)cc1 [compound 170, (2S,4R)-1-((2S)-2-(3-(3-(4-(2-((4-(3-(3-amino-6-(2-hydroxyphenyl)pyridazin-4-yl)-3,8-diazabicyclo[3.2.1]octan-8-yl)pyridin-2-yl)oxy)ethyl)piperazin-1-yl)propyl)isoxazol-5-yl)-3-methylbutanoyl)-4-hydroxy-N-((S)-1-(4-(4-methylthiazol-5-yl)phenyl)ethyl)pyrrolidine-2-carboxamide] | 2.5 to 10 | > 75
8 | Cc1ncsc1-c1ccc([C@@H](NC(=O)[C@@H]2C[C@@H](O)CN2C(=O)[C@H](c2cc(OCCN3CCN(CCOc4cc(N5C6CCC5CN(c5cc(-c7ccccc7O)nnc5N)C6)ccn4)CC3)no2)C(C)C)C(=O)N(C)C)cc1 [compound 171, (2S,4R)-1-((2S)-2-(3-(2-(4-(2-((4-(3-(3-amino-6-(2-hydroxyphenyl)pyridazin-4-yl)-3,8-diazabicyclo[3.2.1]octan-8-yl)pyridin-2-yl)oxy)ethyl)piperazin-1-yl)ethoxy)isoxazol-5-yl)-3-methylbutanoyl)-N-((R)-2-(dimethylamino)-1-(4-(4-methylthiazol-5-yl)phenyl)-2-oxoethyl)-4-hydroxypyrrolidine-2-carboxamide] | > 30 | 50 to 75
9 | CC(C)C(C(=O)N1C[C@H](O)C[C@H]1C(=O)N[C@@H](C)c1ccc(-c2scnc2C#CCN(C)C)cc1)c1cc(OCCN2CCN(CCOc3cc(N4C5CCC4CN(c4cc(-c6ccccc6O)nnc4N)C5)ccn3)CC2)no1 (stereo partly drawn) [compound 172, (2S,4R)-1-(2-(3-(2-(4-(2-((4-(3-(3-amino-6-(2-hydroxyphenyl)pyridazin-4-yl)-3,8-diazabicyclo[3.2.1]octan-8-yl)pyridin-2-yl)oxy)ethyl)piperazin-1-yl)ethoxy)isoxazol-5-yl)-3-methylbutanoyl)-N-((S)-1-(4-(4-(3-(dimethylamino)prop-1-yn-1-yl)thiazol-5-yl)phenyl)ethyl)-4-hydroxypyrrolidine-2-carboxamide] | < 2.5 | > 75
10 | Cc1ncsc1-c1ccc([C@@H](NC(=O)[C@@H]2C[C@@H](O)CN2C(=O)[C@H](c2cc(OCCN3CCN(CCOc4cc(N5C6CCC5CN(c5cc(-c7ccccc7O)nnc5N)C6)ccn4)CC3)no2)C(C)C)C(F)F)cc1 [compound 173, (2S,4R)-1-((2S)-2-(3-(2-(4-(2-((4-(3-(3-amino-6-(2-hydroxyphenyl)pyridazin-4-yl)-3,8-diazabicyclo[3.2.1]octan-8-yl)pyridin-2-yl)oxy)ethyl)piperazin-1-yl)ethoxy)isoxazol-5-yl)-3-methylbutanoyl)-N-((R)-2,2-difluoro-1-(4-(4-methylthiazol-5-yl)phenyl)ethyl)-4-hydroxypyrrolidine-2-carboxamide] | > 30 | > 75
